According to US11447505B1, “Pyrrolo[2,3-b]pyridine compounds and their use in the treatment of cancer” (priority 2017, dated 2022):

Tests used:
MRCKβ = MRCKβ (Homo sapiens (Human), UniProt Q9Y5S2); assay: MRCKβ kinase assay (IMAP fluorescence polarization); assay type: biochemical; details: 1 μM ATP; read-out: MRCK-B Average Ki
Excerpt: MRCKα, MRCKβ, ROCK1 and ROCK2 Kinase Assays

ROCK2 = ROCK2 (Homo sapiens (Human), UniProt O75116); assay: ROCK2 kinase assay (IMAP fluorescence polarization); assay type: biochemical; details: 1 μM ATP; read-out: ROCK2 Average Ki
ROCK1 = ROCK1 (Homo sapiens (Human), UniProt Q13464); details: read-out: ROCK1 Average Ki; 1 μM ATP
Chain of ROCK1 (Q13464 2-1354 limits assumed): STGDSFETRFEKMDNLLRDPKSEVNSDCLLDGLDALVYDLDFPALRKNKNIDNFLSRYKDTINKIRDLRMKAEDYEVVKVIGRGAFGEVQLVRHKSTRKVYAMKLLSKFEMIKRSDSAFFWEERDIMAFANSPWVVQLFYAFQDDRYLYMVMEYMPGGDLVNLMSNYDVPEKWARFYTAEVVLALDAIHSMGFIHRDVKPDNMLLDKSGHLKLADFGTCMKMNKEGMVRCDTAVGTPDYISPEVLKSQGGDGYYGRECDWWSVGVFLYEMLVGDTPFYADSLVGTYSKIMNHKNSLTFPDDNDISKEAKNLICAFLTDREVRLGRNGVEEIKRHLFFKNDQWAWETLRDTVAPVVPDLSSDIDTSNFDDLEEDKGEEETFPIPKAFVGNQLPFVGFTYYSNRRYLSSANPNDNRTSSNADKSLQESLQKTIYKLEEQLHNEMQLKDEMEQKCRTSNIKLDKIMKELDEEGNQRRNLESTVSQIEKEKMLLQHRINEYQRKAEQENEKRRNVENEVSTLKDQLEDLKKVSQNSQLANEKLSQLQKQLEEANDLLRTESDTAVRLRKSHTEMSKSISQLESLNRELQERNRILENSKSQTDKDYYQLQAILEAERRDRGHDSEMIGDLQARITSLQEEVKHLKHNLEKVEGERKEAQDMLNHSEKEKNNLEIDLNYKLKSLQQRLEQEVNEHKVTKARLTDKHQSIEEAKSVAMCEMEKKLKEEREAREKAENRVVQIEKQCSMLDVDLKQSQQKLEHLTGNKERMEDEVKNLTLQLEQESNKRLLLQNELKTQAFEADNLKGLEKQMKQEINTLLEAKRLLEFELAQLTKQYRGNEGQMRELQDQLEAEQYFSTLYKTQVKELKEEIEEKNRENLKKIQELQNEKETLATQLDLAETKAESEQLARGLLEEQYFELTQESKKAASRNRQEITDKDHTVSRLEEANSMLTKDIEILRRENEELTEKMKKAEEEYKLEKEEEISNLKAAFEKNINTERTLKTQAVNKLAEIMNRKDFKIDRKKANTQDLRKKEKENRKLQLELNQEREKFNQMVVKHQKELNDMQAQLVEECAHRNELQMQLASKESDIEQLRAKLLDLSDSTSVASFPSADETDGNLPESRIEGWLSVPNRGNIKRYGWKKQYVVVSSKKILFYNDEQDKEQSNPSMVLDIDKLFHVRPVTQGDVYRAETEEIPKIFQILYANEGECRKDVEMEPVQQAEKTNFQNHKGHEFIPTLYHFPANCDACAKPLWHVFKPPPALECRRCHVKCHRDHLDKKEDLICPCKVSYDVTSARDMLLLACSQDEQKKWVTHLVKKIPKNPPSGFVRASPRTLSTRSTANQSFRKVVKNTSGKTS

Chain of ROCK2 (O75116 whole entry): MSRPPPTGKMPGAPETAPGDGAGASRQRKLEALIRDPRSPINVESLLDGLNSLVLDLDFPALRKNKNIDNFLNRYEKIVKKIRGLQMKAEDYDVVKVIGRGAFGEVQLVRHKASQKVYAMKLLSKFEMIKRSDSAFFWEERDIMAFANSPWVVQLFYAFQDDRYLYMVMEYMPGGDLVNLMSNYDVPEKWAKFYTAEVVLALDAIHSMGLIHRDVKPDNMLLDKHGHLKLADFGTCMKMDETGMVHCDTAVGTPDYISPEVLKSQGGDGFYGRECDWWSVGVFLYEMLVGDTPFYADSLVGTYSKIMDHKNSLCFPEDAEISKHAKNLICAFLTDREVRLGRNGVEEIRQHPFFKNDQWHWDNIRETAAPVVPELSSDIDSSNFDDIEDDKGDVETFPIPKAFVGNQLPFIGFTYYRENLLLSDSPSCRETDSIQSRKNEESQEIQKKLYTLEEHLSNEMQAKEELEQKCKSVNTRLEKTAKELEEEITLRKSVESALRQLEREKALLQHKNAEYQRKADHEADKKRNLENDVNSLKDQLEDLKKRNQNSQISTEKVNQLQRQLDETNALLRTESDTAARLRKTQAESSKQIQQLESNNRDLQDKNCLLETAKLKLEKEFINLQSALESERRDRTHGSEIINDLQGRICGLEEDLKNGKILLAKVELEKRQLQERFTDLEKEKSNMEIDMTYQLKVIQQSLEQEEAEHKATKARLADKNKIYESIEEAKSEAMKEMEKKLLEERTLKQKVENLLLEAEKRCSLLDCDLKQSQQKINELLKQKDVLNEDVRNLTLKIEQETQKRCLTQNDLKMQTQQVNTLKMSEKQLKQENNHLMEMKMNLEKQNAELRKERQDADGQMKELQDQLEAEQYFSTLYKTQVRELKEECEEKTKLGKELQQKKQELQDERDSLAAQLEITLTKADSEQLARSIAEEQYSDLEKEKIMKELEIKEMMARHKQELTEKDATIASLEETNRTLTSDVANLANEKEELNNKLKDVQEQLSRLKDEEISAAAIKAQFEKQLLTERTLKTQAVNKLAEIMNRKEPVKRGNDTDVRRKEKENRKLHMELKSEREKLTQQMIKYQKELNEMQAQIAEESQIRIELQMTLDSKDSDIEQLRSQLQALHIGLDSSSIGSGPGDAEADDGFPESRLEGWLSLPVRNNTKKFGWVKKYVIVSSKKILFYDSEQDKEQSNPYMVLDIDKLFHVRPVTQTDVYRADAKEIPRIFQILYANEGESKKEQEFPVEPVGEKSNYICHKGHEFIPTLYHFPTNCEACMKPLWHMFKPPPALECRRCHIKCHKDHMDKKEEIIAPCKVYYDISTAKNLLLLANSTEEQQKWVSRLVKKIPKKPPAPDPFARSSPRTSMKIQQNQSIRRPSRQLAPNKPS

Compound: c1cc(N2CCCCC2)c2c(-c3ccc4[nH]ncc4c3)c[nH]c2n1 [Example E19, 3-(1H-indazol-5-yl)-4-(1-piperidyl)-1H-pyrrolo[2,3-b]pyridine]
- Ki (MRCKβ): 0.213 µM
- Ki (ROCK2): 0.115 µM
- Ki (ROCK1): 0.144 µM

Compound: CCn1cc(-c2c[nH]c3nccc(N4CCCCC4)c23)cn1 [Example E21, 3-(1-ethylpyrazol-4-yl)-4-(1-piperidyl)-1H-pyrrolo[2,3-b]pyridine]
- Ki (MRCKβ): 0.188 µM
- Ki (ROCK2): 0.0679 µM
- Ki (ROCK1): 0.0749 µM

Compound: Cn1ccc(-c2c[nH]c3nccc(N4CCCCC4)c23)n1 [Example E22, 3-(1-methylpyrazol-3-yl)-4-(1-piperidyl)-1H-pyrrolo[2,3-b]pyridine]
- Ki (MRCKβ): 0.656 µM
- Ki (ROCK2): 3.22 µM
- Ki (ROCK1): 10 µM

Compound: c1ccc(-c2c[nH]c3nccc(N4CCCCC4)c23)nc1 [Example E23, 4-(1-piperidyl)-3-(2-pyridyl)-1H-pyrrolo[2,3-b]pyridine]
- Ki (MRCKβ): 0.134 µM
- Ki (ROCK2): 0.699 µM
- Ki (ROCK1): 1.69 µM

Compound: Cn1cc(-c2c[nH]c3nccc(N4CCCCC4)c23)cn1 [Example E24, 3-(1-methylpyrazol-4-yl)-4-(1-piperidyl)-1H-pyrrolo[2,3-b]pyridine]
- Ki (MRCKβ): 0.0376 µM
- Ki (ROCK2): 0.0208 µM
- Ki (ROCK1): 0.0435 µM

Compound: c1ccc(-c2c[nH]c3nccc(N4CCC4)c23)nc1 [Example E25, 4-(azetidin-1-yl)-3-(2-pyridyl)-1H-pyrrolo[2,3-b]pyridine]
- Ki (MRCKβ): 0.178 µM
- Ki (ROCK2): 1.5 µM
- Ki (ROCK1): 10 µM

Compound: c1cncc(-c2c[nH]c3nccc(N4CCC4)c23)c1 [Example E26, 4-(azetidin-1-yl)-3-(3-pyridyl)-1H-pyrrolo[2,3-b]pyridine]
- Ki (MRCKβ): 0.0576 µM
- Ki (ROCK2): 0.263 µM
- Ki (ROCK1): 0.545 µM

Compound: c1cc(N2CCC2)c2c(-c3cn[nH]c3)c[nH]c2n1 [Example E27, 4-(azetidin-1-yl)-3-(1H-pyrazol-4-yl)-1H-pyrrolo[2,3-b]pyridine]
- Ki (MRCKβ): 0.13 µM
- Ki (ROCK2): 0.381 µM
- Ki (ROCK1): 0.713 µM

Compound: c1cc(N2CCC2)c2c(-c3cc[nH]n3)c[nH]c2n1 [Example E28, 4-(azetidin-1-yl)-3-(1H-pyrazol-3-yl)-1H-pyrrolo[2,3-b]pyridine]
- Ki (MRCKβ): 0.0294 µM
- Ki (ROCK2): 0.0098 µM
- Ki (ROCK1): 0.0144 µM

Compound: CN1CCN(c2ccnc3[nH]cc(C#N)c23)CC1 [Example E32, 4-(4-methylpiperazin-1-yl)-1H-pyrrolo[2,3-b]pyridine-3-carbonitrile]
- Ki (MRCKβ): 0.147 µM
- Ki (ROCK2): 0.164 µM
- Ki (ROCK1): 0.237 µM

Compound: N#Cc1c[nH]c2nccc(N3CCNCC3)c12 [Example E34, 4-piperazin-1-yl-1H-pyrrolo[2,3-b]pyridine-3-carbonitrile]
- Ki (MRCKβ): 0.0528 µM
- Ki (ROCK2): 0.0238 µM
- Ki (ROCK1): 0.0436 µM

Compound: CN[C@H]1CCCN(c2ccnc3[nH]cc(-c4ncccc4F)c23)C1 [Example E48, (3S)-1-[3-(3-fluoro-2-pyridyl)-1H-pyrrolo[2,3-b]pyridin-4-yl]-N-methyl-piperidin-3-amine]
- Ki (MRCKβ): 0.00173 µM
- Ki (ROCK2): 0.756 µM
- Ki (ROCK1): 3.53 µM

Compound: CN[C@H]1CCCN(c2ccnc3[nH]cc(-c4ccccn4)c23)C1 [Example E49, (3S)-N-methyl-1-[3-(2-pyridyl)-1H-pyrrolo[2,3-b]pyridin-4-yl]piperidin-3-amine]
- Ki (MRCKβ): 0.000506 µM
- Ki (ROCK2): 0.272 µM
- Ki (ROCK1): 50.8 µM

Compound: CN[C@H]1CCCN(c2ccnc3[nH]cc(-c4cncc(F)c4)c23)C1 [Example E50, (3S)-1-[3-(5-fluoro-3-pyridyl)-1H-pyrrolo[2,3-b]pyridin-4-yl]-N-methyl-piperidin-3-amine]
- Ki (MRCKβ): 0.000729 µM
- Ki (ROCK2): 0.578 µM
- Ki (ROCK1): 2.05 µM

Compound: CN[C@H]1CCCN(c2ccnc3[nH]cc(-c4ccc(F)cn4)c23)C1 [Example E51, (3S)-1-[3-(5-fluoro-2-pyridyl)-1H-pyrrolo[2,3-b]pyridin-4-yl]-N-methyl-piperidin-3-amine]
- Ki (MRCKβ): 0.00741 µM
- Ki (ROCK2): 2.19 µM
- Ki (ROCK1): 8.93 µM

Compound: CN[C@H]1CCCN(c2ccnc3[nH]cc(-c4cccnc4)c23)C1 [Example E53, (3S)-N-methyl-1-[3-(3-pyridyl)-1H-pyrrolo[2,3-b]pyridin-4-yl]piperidin-3-amine]
- Ki (MRCKβ): 0.00127 µM
- Ki (ROCK2): 0.335 µM
- Ki (ROCK1): 50.5 µM

Compound: OCCN[C@H]1CCCN(c2ccnc3[nH]cc(-c4cncnc4)c23)C1 [Example E56, 2-[[(3S)-1-(3-pyrimidin-5-yl-1H-pyrrolo[2,3-b]pyridin-4-yl)-3-piperidyl]amino]ethanol]
- Ki (MRCKβ): 0.00223 µM
- Ki (ROCK2): 0.573 µM
- Ki (ROCK1): 1.39 µM

Compound: N[C@H]1CCN(c2ccnc3[nH]cc(-c4cncnc4)c23)C1 [Example E58, (3S)-1-(3-pyrimidin-5-yl-1H-pyrrolo[2,3-b]pyridin-4-yl)pyrrolidin-3-amine]
- Ki (MRCKβ): 0.00348 µM
- Ki (ROCK2): 0.0858 µM
- Ki (ROCK1): 0.158 µM

Compound: c1cc(-c2c[nH]c3nccc(O[C@@H]4CCCNC4)c23)ncn1 [Example E213, 3-pyrimidin-4-yl-4-[[(3R)-3-piperidyl]oxy]-1H-pyrrolo[2,3-b]pyridine]
- Ki (MRCKβ): 0.000144 µM
- Ki (ROCK1): 0.00384 µM

Compound: N-[(3S)-1-(3-pyridazin-4-yl-1H-pyrrolo[2,3-b]pyridin-4-yl)-3-piperidyl]acetamide [Example E205]
- Ki (MRCKβ): 0.00443 µM
- Ki (ROCK1): 0.113 µM
